Laboratory results: patent US20210254056A1, “IDENTIFICATION AND TARGETED MODULATION OF GENE SIGNALING NETWORKS” (CAMP4 THERAPEUTICS CORPORATION, priority 2017, published 2021)
Read-outs that look alike come from different tables or passages of the source.

Assays:
[1] = tested on: primary human hepatocytes; experiment: RNA-seq of primary human hepatocytes treated with 39 small molecules (pilot and validation); conditions: for Number (#) of genes having significantly changed expression: pilot RNA-seq study of Example 2, significance: FPKM≥0.5, log 2(fold change)≥1, q-value ≤0.05
[2] = tested on: primary human hepatocytes
[3] = tested on: Hematopoietic progenitor CD34+ cells; experiment: qRT-PCR after inducible (pTRIPZ) shRNA knockdown in CD34+ cells; assay type: cell-based, human; conditions: for RQ, BAG1: relative quantification of BAG1 expression vs puro_shNT; for RQ, BAG1 / RQ, BAX / RQ, GATA1 / RQ, GATA2 / RQ, MDM2: pTRIPZ dox inducible shRNA, B-Actin internal control, Table 81; for RQ, BAX: relative quantification of BAX expression vs puro_shNT; for RQ, GATA1: relative quantification of GATA1 expression vs puro_shNT; for RQ, GATA2: relative quantification of GATA2 expression vs puro_shNT; for RQ, HBB: relative quantification of HBB expression vs puro_shNT; for RQ, HBB / RQ, RPL11 / RQ, RPS19 / RQ, p21 / RQ, p53: inducible pTRIPZ shRNA, CD34+ cells, B-ACTIN, Table 80; for RQ, MDM2: relative quantification of MDM2 expression vs puro_shNT; for RQ, RPL11: relative quantification of RPL11 expression vs puro_shNT; for RQ, RPS19: relative quantification of RPS19 expression vs puro_shNT; for RQ, p21: relative quantification of p21 expression vs puro_shNT; for RQ, p53: relative quantification of p53 expression vs puro_shNT
Description: Conditionally immortalized cord blood CD34+ cells were transduced with the shRNA lentiviruses using the retronectin-transduction protocol (Clontech). Puromycin selection was performed 24-48 hours post-transduction. Cells were counted to monitor cell viability. After 12 days, which allowed for a large biomass, knockdown efficiency was analyzed. qRT-PCR was used to identify changes in mRNA, and Western blot was used to determine levels of protein depletion.
For RNA extraction, 1×10^6 cells were harvested in 500 μL of TRIZOL reagent (Thermo Scientific), and incubated for 5 minutes at room temperature. Then, 100 μL of chloroform was added to the cells, and the mixture was vortexed and then centrifuged at 12,000× gravity for 15 minutes. The aqueous phase was transferred to fresh tubes and one volume of 70% ethanol was added. The TRIZOL Plus RNA purification Kit (Thermo Scientific) was used for the remaining extraction protocol according to the manufacturer's instructions. For the conversion of RNA to cDNA the High Capacity cDNA RT kit (Thermo Scientific) was used according to the manufacturer's instructions. The cDNA was analyzed with qRT-PCR to determine the fold change of knockdown cells using Taqman Fast PCR mix and Applied Biosystems probes (Thermo Scientific).
shRNAs targeting RPS19, p53, or RPL11 were delivered to normal cord blood erythroblast cells using either the pLKO (constitutive) and pTRIPZ (inducible) plasmids described in Example 1. The mRNA expression of the p53 pathway proteins; progenitor factor GATA2; and differentiation factors HBB and GATA1 were measured by qRT-PCR. Cells not transduced with a shRNA as well as cells transduced with a non-targeting shRNA served as controls.
Hematopoietic progenitor CD34^+ cells were transduced with the pTRIPZ inducible lentiviral plasmids containing p53_sh1, puro_shNT, RPL11_1, RPL11_2, RPS19_1, or RPS19_2.
The relative expression of GATA1, GATA2, MDM2, BAX, and BAG1 were also analyzed in cells transduced with a pTRIPZ dox inducible shRNA. B-Actin was used as an internal control.

[4] = RNA-seq, p-value≤0.05, primary human hepatocytes, the modulated genes are listed in the block

CC(C)N(CCC(C(N)=O)(c1ccccc1)c1ccccn1)C(C)C (stereo not shown) [MT-189, Disopyramide]
significant modulation of gene expression [1, 4]: significantly (p-value≤0.05) modulate
Number (#) of genes having significantly changed expression [1]: 7
Log2 fold changes in gene expression: CYP2C19 [2]: 0.18
Log2 fold changes in gene expression: CYP3A4 [2]: 0.03

CCc1oc2ccccc2c1C(=O)c1cc(Br)c(O)c(Br)c1 [MT-220, Benzbromarone]
significant modulation of gene expression [1, 4]: significantly (p-value≤0.05) modulate
Number (#) of genes having significantly changed expression [1]: 119
Log2 fold changes in gene expression: CYP2C19 [2]: 0.57
Log2 fold changes in gene expression: CYP3A4 [2]: 0.87
cytotoxicity in hepatocytes [2]: cytotoxic

CCN1CCCC1CNC(=O)c1cc(S(N)(=O)=O)ccc1OC (stereo not shown) [MT-277, Sulpiride]
significant modulation of gene expression [1, 4]: significantly (p-value≤0.05) modulate
Number (#) of genes having significantly changed expression [1]: 8
Log2 fold changes in gene expression: CYP2C19 [2]: 0.04
Log2 fold changes in gene expression: CYP3A4 [2]: 0

C#C[C@]1(O)CC[C@H]2[C@@H]3CCC4=Cc5oncc5C[C@]4(C)[C@H]3CC[C@@]21C [MT-487, Danazol]
significant modulation of gene expression [1, 4]: significantly (p-value≤0.05) modulate
Number (#) of genes having significantly changed expression [1]: 5
Log2 fold changes in gene expression: CYP2C19 [2]: −0.03
Log2 fold changes in gene expression: CYP3A4 [2]: 0.11

CCc1nn(CCCN2CCN(c3cccc(Cl)c3)CC2)c(=O)n1CCOc1ccccc1 [MT-505, Nefazodone]
significant modulation of gene expression [1, 4]: significantly (p-value≤0.05) modulate
Number (#) of genes having significantly changed expression [1]: 18
Log2 fold changes in gene expression: CYP2C19 [2]: −0.03
Log2 fold changes in gene expression: CYP3A4 [2]: 0.4

CN(C)CCC=C1c2ccccc2COc2ccccc21 [MT-723, Adapin (doxepin)]
Log2 fold changes in gene expression: ACADVL [1]: 0
Log2 fold changes in gene expression: ACAT2 [1]: −0.03
Log2 fold changes in gene expression: ACSL1 [1]: 0.04
Log2 fold changes in gene expression: ACSL5 [1]: 0.03
Log2 fold changes in gene expression: AGPAT2 [1]: −0.05
Log2 fold changes in gene expression: AGTR1 [1]: 0.03
Log2 fold changes in gene expression: AHSG [1]: −0.07
Log2 fold changes in gene expression: ALAS1 [1]: −0.01
Log2 fold changes in gene expression: AMACR [1]: −0.11
Log2 fold changes in gene expression: ARG1 [1]: 0.07
Log2 fold changes in gene expression: CA2 [1]: −0.08
Log2 fold changes in gene expression: CA12 [1]: 0.29
Log2 fold changes in gene expression: CIDEC [1]: 0.09
Log2 fold changes in gene expression: COL1A1 [1]: −0.14
Log2 fold changes in gene expression: CPS1 [1]: −0.04
Log2 fold changes in gene expression: CPT1A [1]: 0.06
Log2 fold changes in gene expression: CPT2 [1]: −0.09
Log2 fold changes in gene expression: CYP21A2 [1]: 0.08
Log2 fold changes in gene expression: ECH1 [1]: −0.04
Log2 fold changes in gene expression: ENO3 [1]: −0.21
Log2 fold changes in gene expression: ETFDH [1]: 0.05
Log2 fold changes in gene expression: FABP1 [1]: −0.08
Log2 fold changes in gene expression: G6PC [1]: 0.03
Log2 fold changes in gene expression: GHR [1]: −0.05
Log2 fold changes in gene expression: GLA [1]: 0.01
Log2 fold changes in gene expression: HGD [1]: 0
Log2 fold changes in gene expression: HMGCR [1]: 0.02
Log2 fold changes in gene expression: HMGCS2 [1]: −0.04
Log2 fold changes in gene expression: HMOX1 [1]: 0.22
Log2 fold changes in gene expression: HOGA1 [1]: 0.03
Log2 fold changes in gene expression: HPGD [1]: 0.05
Log2 fold changes in gene expression: IFT27 [1]: 0
Log2 fold changes in gene expression: LDHA [1]: −0.09
Log2 fold changes in gene expression: LPIN2 [1]: 0.03
Log2 fold changes in gene expression: MOGAT2 [1]: 0.01
Log2 fold changes in gene expression: NCF2 [1]: −0.21
Log2 fold changes in gene expression: PCSK9 [1]: 0.11
Log2 fold changes in gene expression: POR [1]: 0.1
Log2 fold changes in gene expression: RMRP [1]: −0.14
Log2 fold changes in gene expression: SLC2A2 [1]: −0.04
Log2 fold changes in gene expression: SLC6A6 [1]: 0.17
Log2 fold changes in gene expression: SLC25A20 [1]: −0.1
Log2 fold changes in gene expression: SLC37A4 [1]: −0.17
Log2 fold changes in gene expression: SLC51B [1]: −0.26
Log2 fold changes in gene expression: SULT2A1 [1]: 0.03
Log2 fold changes in gene expression: TAT [1]: −0.1
Log2 fold changes in gene expression: TDO2 [1]: −0.14
Log2 fold changes in gene expression: TMEM135 [1]: 0.05
Log2 fold changes in gene expression: TNFSF11 [1]: −0.11
Log2 fold changes in gene expression: VLDLR [1]: 0.01
significant modulation of gene expression [1]: significantly (p-value≤0.05) modulate
Log2 fold changes in gene expression: CYP2C19 [2]: 0.18
Log2 fold changes in gene expression: CYP3A4 [2]: 0.14

RPS19_1 (guide TAGAACCAGTTCTCATCGTA; chemistry not fully specified; listed as Homo sapiens)
RQ, BAG1 [3]: 1.16
RQ, BAX [3]: 1.57
RQ, GATA1 [3]: 0.67
RQ, GATA2 [3]: 1.53
RQ, HBB [3]: 0.50
RQ, MDM2 [3]: 2.72
RQ, RPL11 [3]: 1.90
RQ, RPS19 [3]: 0.47
RQ, p21 [3]: 5.87
RQ, p53 [3]: 1.66

RPS19_2 (guide CTTGACGGTATCCACCCATT; chemistry not fully specified; listed as Homo sapiens)
RQ, BAG1 [3]: 1.08
RQ, BAX [3]: 1.29
RQ, GATA1 [3]: 0.87
RQ, GATA2 [3]: 1.23
RQ, HBB [3]: 0.55
RQ, MDM2 [3]: 1.38
RQ, RPL11 [3]: 1.46
RQ, RPS19 [3]: 0.77
RQ, p21 [3]: 1.73
RQ, p53 [3]: 1.12
